The values below come from EPA's ToxValDB 9.5.

Values joined by “and” are separate entries in the source; they are usually repeats but may differ in a detail not shown here. Identical values can stand only once.

The test system of series [1] is Oryctolagus sp. As to conditions: oral, gavage, New Zealand.
Series [2] relates to Homo sapiens. The settings on record: clinical; duration: 1 days; inhalation; M/F; respiratory.
For series [3], the system named is Rattus norvegicus.
The subject of series [4] is Oryctolagus sp. As to conditions: developmental, M/F.
In series [5] the test system is Rattus norvegicus. The source holds these as a separate data set.
For series [6], the system named is Rattus norvegicus. The settings on record: subchronic, oral, gavage, M/F.
For series [7], the system named is Mus musculus. As to conditions: uterotrophic; duration: 3 days; injection; intraperitoneal; Active.
Series [8] deals with Oryctolagus sp. The settings on record: dermal, New Zealand.
For series [9], the system named is Cavia porcellus. The settings on record: acute, Guinea Pig.
Series [10] deals with Rattus norvegicus. As to conditions: for LC50 / LD50: acute.
For series [11], the system named is Mus musculus. As to conditions: for LC50: acute.
The subject of series [12] is Canidae. As to conditions: chronic, duration: 2 years, oral, diet, M/F, Dog Other.
Series [13] concerns Canidae. The settings on record: chronic; duration: 2 years; oral; diet; Dog Other; Kidney: Increased weight + Liver: Increased weight.
For series [14], the system named is Rattus norvegicus. The settings on record: chronic; duration: 16 weeks; oral; diet; Kidney: Degeneration.
[15] abbreviates: chronic, oral, F, liver and kidney toxicity.
Setting [16] is: reproduction developmental, duration: 21 days.
[17] abbreviates: reproduction developmental, duration: 10 days, oral, gavage, F, Crl:CD(SD).
Where [18] appears, read: reproduction developmental, duration: 28 days, oral, diet.
[19] abbreviates: subchronic, duration: 90 days, oral, diet, Sprague-Dawley.
The mark [20] stands for this setting: subchronic, duration: 90 days, oral, diet, B6C3F1.
[21] abbreviates: reduced body weight gain, increased liver and kidney weight, and rbc cholinesterase inhibition.
[22] abbreviates: oral, Reduced body weight gain (maternal), increased resorption, reduced body weight (fetal), delayed ossification.

As to `[B]` [Boron], the NOAEL amounted to 22 mg/kg-day in series [1] (developmental, duration: 13 days, M/F, developmental) and 0.8 mg/m3 in series [2].

Take `CCc1ccccc1` [Ethylbenzene]: the LOAEL worked out at 326 mg/m3 in series [3] (chronic, duration: 104 weeks, inhalation, M/F, Fischer 344, renal); 408 mg/kg-day in [5] (setting [15]); 4340 mg/m3 in series [5] (developmental, inhalation, M/F, developmental toxicity). Moreover, the no observed adverse effect level (NOAEL) in [4] (inhalation, developmental toxicity) was found to be 434 mg/m3; in series [6] (duration: 90 days, Wistar, Clinical Observation: Salivation Discolored urine + Functional Observational Battery: Decreased landing foot-splay + Body Weight Changes: …) it was 75 mg/kg-day. The NOEL in series [5] (setting [15]) was 97.1 mg/kg-day and 136 mg/kg-day.

As for `CC(C)(c1cc(Br)c(O)c(Br)c1)c1cc(Br)c(O)c(Br)c1` [3,3',5,5'-Tetrabromobisphenol A], the LEL in [7] is 20 mg/kg-day. The median lethal dose (LD50) in series [8] (acute) is greater than 2000 mg/kg; in series [10] (oral, gavage, Sprague-Dawley) it was greater than 5000 mg/kg. Moreover, the lowest-observed-adverse-effect level (LOAEL) was greater than 2500 mg/kg-day in series [8] (setting [16]); greater than 2500 mg/kg-day in series [10] (developmental, duration: 19 days, oral, gavage, Wistar); 5000 mg/kg-day in [10] (setting [17]); 6 mg/L in series [10] (reproduction developmental, duration: 14 days, inhalation); greater than 1000 mg/kg-day in series [10] (reproduction developmental, duration: 19 days, oral, gavage, F); 1000 mg/kg-day in series [10] (reproduction developmental, oral, gavage, Sprague-Dawley, generation: F0). In addition, the results for the lowest-observed-adverse-effect level (LOAEL) in [10] (setting [19]) and in series [11] (setting [20]) were greater than 100 mg/kg-day and 3070 mg/kg-day, respectively. Also, the NOAEL was 2500 mg/kg-day in series [8] (setting [16]); 1000 mg/kg-day in series [10] (developmental, duration: 19 days, oral, gavage); 2500 mg/kg-day in series [10] (developmental, duration: 20 days, oral, Wistar); 3000 mg/kg-day in [10] (setting [17]); 1000 mg/kg-day in series [10] (reproduction developmental, duration: 20 days, oral, gavage, F, Sprague-Dawley); no less than 1000 ppm in series [10] (setting [18]). Moreover, the NOAEL is greater than 100 mg/kg-day in series [10] (setting [19]); 1000 mg/kg-day in series [10] (subchronic, duration: 90 days, oral, gavage, Sprague-Dawley); 965 mg/kg-day in [11] (setting [20]). In addition, the LC50 was greater than 50 mg/L in series [9] (inhalation); greater than 28200 mg/m3 in [10] (inhalation); greater than 50 mg/L in series [10] (inhalation, Wistar); greater than 50 mg/L in series [11] (inhalation, NMDI). The molecule also gave an LOAEC in series [10] (setting [18]) greater than 1000 ppm.

Consider `COP(=O)(OC)O/C(=C/Cl)c1cc(Cl)c(Cl)cc1Cl` [Tetrachlorovinphos], for which the LEL in series [12] (setting [21]) was determined as 50 mg/kg-day. Also, the NOEL in series [12] (setting [21]) turned out to be 3.13 mg/kg-day; in [13] it was 3.1 mg/kg-day.

For the molecule `CCCCOCCOCCOCOCCOCCOCCCC` [Bis(butoxyethoxyethoxy)methane], the LC50 in series [9] (Inhalation) was greater than 200 mg/L; in series [10] (Inhalation, Wistar) it was greater than 200 mg/L; in [11] (Inhalation, Swiss-Webster), greater than 200 mg/L. Also, the 50% lethal dose (LD50) was greater than 2000 mg/kg in series [10] (dermal, occlusive, Sprague-Dawley) and greater than 2000 mg/kg in series [10] (oral, Sprague-Dawley). For the same molecule, the no observed adverse effect level (NOAEL) in series [10] (developmental, duration: 9 weeks, oral, gavage, Sprague-Dawley) was determined as 100 mg/kg-day; in series [10] (reproduction developmental, duration: 9 weeks, oral, gavage, F, Sprague-Dawley), 100 mg/kg-day; in [10] (reproduction developmental, duration: 9 weeks, oral, gavage, Sprague-Dawley), 100 mg/kg-day; in series [10] (reproduction developmental, duration: 9 weeks, oral, gavage, Sprague-Dawley, generation: F0), 100 mg/kg-day; in series [10] (reproduction developmental, duration: 9 weeks, oral, gavage, Sprague-Dawley, generation: F1), 100 mg/kg-day.

`C#CCOS(=O)OC1CCCCC1Oc1ccc(C(C)(C)C)cc1` (stereo unspecified) [Propargite] registered an LEL in series [4] (setting [22]) of 6 mg/kg-day. Besides, the NOEL in series [4] (setting [22]) was 2 mg/kg-day; in series [12] (No adverse effects observed at the HDT), 22.5 mg/kg-day.

Regarding `ClC(Cl)(Cl)C(Cl)(Cl)Cl` [Hexachloroethane], the NOAEL in series [1] (short-term, duration: 12 days, M, hepatic) came to 100 mg/kg-day; in series [3] (chronic, duration: 16 weeks, oral, diet, M/F, Fischer 344, hepatic) it was 1 mg/kg-day; in [3] (reproduction developmental, duration: 10 days, inhalation, F, Sprague-Dawley, neurological), 465 mg/m3; in [3] (subchronic, duration: 6 weeks, inhalation, M/F, Sprague-Dawley, neurological), 465 mg/m3; in series [5] (subchronic, duration: 6 weeks, inhalation, M/F, Sprague-Dawley, neurotoxicity: tremors and ruffled pelt), 465 mg/m3; in series [14] it was 1 mg/kg-day. For the same molecule, in series [6] (duration: 13 weeks, Fischer 344, Deaths + Clinical Observation: Hyperactivity Convulsions + Body Weight Changes: decrease + Relative Organ Weight: Liver increase, Brain …), the NOEL was less than 47 mg/kg-day.

The NOAEL is the highest tested level that showed no adverse finding. Usually LOAEL stands for the lowest tested level that showed an adverse finding. The term LD50 denotes the dose at which mortality reaches 50%. Read a low LD50 as greater toxicity.
